Where two headings read alike, the source gives them in different places.
Key:
Assay type in all cases: cell-based, human
[1] = tested on: Beas-2B cells; test: Cell viability / cytotoxicity (MTT assay) in Beas-2B cells; settings: 24 h, DMSO = 100
Method: Concurrent with the gene expression analysis, the cytotoxicity of the chalcone derivatives was determined using the MTT assay.
Mad. Chem. 2007, 15, 2952-2962. […] Four hours before the end of incubation, the medium was removed and 100 μL of MTT (5 mg/mL in serum free medium) was added to each well. The MTT was removed after 4 h, cells were washed with PBS, and 100 μL DMSO was added to each well to dissolve the water-insoluble MTT-formazan crystals. The absorbance was recorded at 570 nm in a plate reader (Molecular Devices, Sunnyvale, Calif.).

[2] = tested on: Nrf2; test: Expression of Nrf2-regulated genes GCLM and NQO1 by qRT-PCR in Beas-2B cells (screen); settings: Homo sapiens, BEAS-2B, 16 h
Method: To investigate the potency of the presently disclosed chalcone derivatives to activate Nrf2, the expression of antioxidant genes, GCLM and NADPH-NQO1, two well characterized transcriptional targets of Nrf2, were measured as surrogate markers. By “marker” is meant any protein or polynucleotide having an alteration in expression level or activity that is associated with a disease, disorder, or condition. It has been previously shown that oxidants or small molecule activators of Nrf2 increase GCLM and NQO1 in cells or tissues of wild-type, but not in Nrf2-deficient mice. Osburn, W. O., et al., Genetic or pharmacologic amplification of Nrf2 signaling inhibits acute inflammatory liver injury in mice. Toxicol. Sci. 2008, 104(1), 218-227. […]
RNA was isolated and gene expression was measured after 16 h.
Total RNA was extracted from cells/tissue using Qiagen RNeasy kit (Qiagen Corporation, Valencia, Calif.) and reverse transcription was performed by using random hexamers and MultiScribe reverse transcriptase according to the manufacturer's recommendations (Applied Biosystems, Foster City, Calif., USA). Quantitative real-time RT-PCR analyses of Nrf2, NQO1, HO1, and GCLM were performed by using Assay-on-Demand primers and probe sets from Applied Biosystems. Assays were performed using the ABI 7000 Taqman system (Applied Biosystems, Foster City, Calif.). β-actin was used for normalization.

[3] = tested on: Nrf2; test: Nrf2-regulated gene expression with or without N-acetyl-cysteine in Beas-2B cells; settings: NAC 10 mM alone, 24 h
Method: Cells were harvested 24 h after the treatment and the Nrf2-driven expression of NQO1, HO-1, and GCLM was quantified. β-actin was used for normalization. Data are representative of three independent experiments. Values shown are mean±SD of triplicate wells (P≦0.05);
The activation of Nrf2 by various electrophiles and compounds that are Michael acceptors is attributed to changes in ROS production and or redox environment and or direct cysteine modification in Keap1. Nguyen, T., et al., The Nrf2-antioxidant response element signaling pathway and its activation by oxidative stress. J. Biol. Chem. 2009, 284, 13291-13295; McMahon, M., et al., Keap1 perceives stress via three sensors for the endogenous signaling molecules nitric oxide, zinc, and alkenals. Proc. Natl. Acad. Sci. U.S.A. 2010, 107, 18838-18843. Whether 2b activates Nrf2 by generating ROS or redox changes also was examined.

[4] = DMSO = 1.0 (Table 2), read-out: Relative Fold Change GCLM
[5] = DMSO = 1.0 (Table 2), read-out: Relative Fold Change NQO1
[6] = DMSO = 1 (Table 3), read-out: Relative Fold Change GCLM
[7] = DMSO = 1 (Table 3), read-out: Relative Fold Change NQO1

Row | SMILES | % Cell Viability [1] [%] | fold induction at 10 µM [2, 4] | fold induction at 10 µM [2, 5] | fold induction at 10 µM [2, 6] | fold induction at 10 µM [2, 7] | induction of Nrf2-regulated genes, NAC alone [3]
1 | COc1cccc(OC)c1C(=O)/C=C/c1ccccc1[N+](=O)[O-] [Compound 5f] | 75.8 | 4.1 | 3.7 | 4.1 | 3.7 | –
2 | COc1cc(OC)cc(C(=O)/C=C/c2ccccc2[N+](=O)[O-])c1 [Compound 5i] | 90.9 | 3.4 | 4.1 | 3.4 | 4.1 | –
3 | CC(=O)N[C@@H](CS)C(=O)O [NAC, N-acetyl-cysteine, reference compound] | – | – | – | – | – | no induction of Nrf2-regulated genes
4 | C[S+]([O-])CCCCN=C=S (stereo not shown) [Sulforaphane, reference compound] | 97.3 | 2.7 | 3.6 | 2.7 | 3.6 | –
